Measured values: patent US8314122B2, “Using of organic solvents in wet granulation of moxifloxacin” (Abdi Ibrahim Ilac Sanayi Ve Ticaret Anonim Sirketi, priority 2008, dated 2012)
Entries after “also recorded” stand apart in the source; their conditions may differ. Structures can show the parent of a compound that is named as a salt.

Assay: Wet granulation of anhydrous moxifloxacin hydrochloride, crystal form checked by X-ray powder diffractogram
Format: physicochemical
Text: Using of anhydrous moxifloxacin hydrochloride, of which X-ray powder diffractogram could be seen (FIG. 2), in pharmaceutical formulations provides eligible stability therefore preferred rather than moxifloxacin hydrochloride monohydrate. […] It is not desired and it should be prevented.
A wet granulation method with an organic solvent or mixtures of organic solvents is describe herein in which the organic solvent or mixtures of organic solvents are selected from isopropyl alcohol (IPA), acetone, ethanol, dichloromethane and mixtures thereof. […] It is not desired to be converted and thence If conversion is not desired, then granulation should not be performed with water or water mixtures. Anhydrous moxifloxacin hydrochloride should not be exposed to water in the preparation stage. The organic solvent is selected from isopropyl alcohol (IPA), acetone, ethanol, dichloromethane or mixtures thereof in the wet granulation method so as to obtain non-convertible formulations (respectively FIG. 4, FIG. 5, FIG. 6, FIG. 7).
POVIDONE K-30 (polyvinylpyrrolidone) is added to isopropyl alcohol and mixed until the POVIDONE K-30 (polyvinylpyrrolidone) is completely dissolved (Step 1). Moxifloxacin Hydrochloride and Microcrystalline Cellulose are transferred to a granulator and mixed (Step 2). The granulation solution from step 1 is added to the powder mixtures from step 2 and mixed. Wet granules are taken from the granulator to the oven and dried. The granules are sieved. MANNITOL SD 200 (mannitol) and croscarmellose sodium are transferred to the mixtures in the container and mixed. Magnesium stearate is sieved and added to the mixtures in the container and sieved. The blend is tabletted using appropriate punches according to the specifications.

## COc1c(N2C[C@@H]3CCCN[C@@H]3C2)c(F)cc2c(=O)c(C(=O)O)cn(C3CC3)c12 [anhydrous moxifloxacin hydrochloride]
Wet granulation with acetone (FIG. 5)
  conversion of anhydrous form to moxifloxacin hydrochloride monohydrate: no conversion to moxifloxacin hydrochloride monohydrate
Wet granulation with dichloromethane (FIG. 7)
  conversion of anhydrous form to moxifloxacin hydrochloride monohydrate: no conversion to moxifloxacin hydrochloride monohydrate
Wet granulation with ethanol (FIG. 6)
  conversion of anhydrous form to moxifloxacin hydrochloride monohydrate: no conversion to moxifloxacin hydrochloride monohydrate
Wet granulation with isopropyl alcohol (FIG. 4)
  conversion of anhydrous form to moxifloxacin hydrochloride monohydrate: no conversion
Wet granulation with water as wetting agent (FIG. 3), hydrochloride
  conversion of anhydrous form to moxifloxacin hydrochloride monohydrate: instantly converted to moxifloxacin hydrochloride monohydrate; also recorded: conversion from anhydrous moxifloxacin hydrochloride to moxifloxacin hydrochloride monohydrate
